Laboratory results: ChEMBL document CHEMBL1141151, “High-affinity epidermal growth factor receptor (EGFR) irreversible inhibitors with diminished chemical reactivities as positron emission tomography (PET)-imaging agent candidates of EGFR overexpressing tumors” (J Med Chem, 2005)

How the values were obtained:
[1] = molecular target: T1, Epidermal growth factor receptor (Homo sapiens, UniProt P00533); test: (§1) Inhibition of EGF Receptor autophosphorylation in A431 cell lysate
[2] = molecular target: T1, Epidermal growth factor receptor; test: as §1; remark: listed apart in the source
[3] = molecular target: Platelet-derived growth factor receptor (Homo sapiens, UniProt P09619+P16234); test: Inhibition of human PDGFR kinase in intact NIHPDGFR cells; assay type: cell-based
[4] = molecular target: T1, Epidermal growth factor receptor; test: as §1; remark: listed apart in the source
[5] = molecular target: T2, Receptor tyrosine-protein kinase erbB-2 (Homo sapiens, UniProt P04626); test: Inhibition of HER2 kinase in intact CSH12 cells; Range = 25-50 nM; assay type: cell-based
T2 sequence (P04626 whole entry): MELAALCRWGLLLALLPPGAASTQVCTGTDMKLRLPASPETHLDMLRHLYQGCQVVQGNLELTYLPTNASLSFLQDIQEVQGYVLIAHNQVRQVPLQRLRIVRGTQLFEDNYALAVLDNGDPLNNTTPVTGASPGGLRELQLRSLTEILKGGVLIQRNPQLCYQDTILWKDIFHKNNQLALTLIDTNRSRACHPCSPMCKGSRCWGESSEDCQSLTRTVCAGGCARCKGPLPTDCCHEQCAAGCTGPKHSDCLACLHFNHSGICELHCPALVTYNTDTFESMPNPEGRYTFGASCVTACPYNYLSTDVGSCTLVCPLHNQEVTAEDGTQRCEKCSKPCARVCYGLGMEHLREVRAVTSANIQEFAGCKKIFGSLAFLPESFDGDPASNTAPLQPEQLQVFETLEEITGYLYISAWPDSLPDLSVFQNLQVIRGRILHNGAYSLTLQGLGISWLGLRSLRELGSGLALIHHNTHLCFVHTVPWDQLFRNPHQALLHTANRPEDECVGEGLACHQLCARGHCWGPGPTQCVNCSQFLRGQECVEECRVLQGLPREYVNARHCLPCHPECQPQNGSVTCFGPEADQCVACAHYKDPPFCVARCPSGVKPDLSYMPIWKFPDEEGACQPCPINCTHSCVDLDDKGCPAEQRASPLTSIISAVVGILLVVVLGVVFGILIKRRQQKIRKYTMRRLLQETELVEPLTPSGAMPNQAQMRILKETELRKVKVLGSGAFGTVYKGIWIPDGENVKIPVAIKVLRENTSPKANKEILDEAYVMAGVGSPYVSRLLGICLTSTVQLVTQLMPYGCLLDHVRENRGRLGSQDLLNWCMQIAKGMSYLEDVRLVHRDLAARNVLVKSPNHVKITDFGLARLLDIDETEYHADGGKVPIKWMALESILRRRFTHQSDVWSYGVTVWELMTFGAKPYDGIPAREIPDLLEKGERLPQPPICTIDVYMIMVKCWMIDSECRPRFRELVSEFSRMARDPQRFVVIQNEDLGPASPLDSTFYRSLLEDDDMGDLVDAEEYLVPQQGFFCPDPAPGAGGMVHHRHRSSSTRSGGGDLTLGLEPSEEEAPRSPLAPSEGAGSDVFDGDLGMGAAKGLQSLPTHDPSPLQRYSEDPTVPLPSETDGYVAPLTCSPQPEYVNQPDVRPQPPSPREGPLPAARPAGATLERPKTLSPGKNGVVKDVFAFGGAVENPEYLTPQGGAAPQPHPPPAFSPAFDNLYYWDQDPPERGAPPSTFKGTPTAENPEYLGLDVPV

[6] = molecular target: T2, Receptor tyrosine-protein kinase erbB-2; test: Inhibition of HER2 kinase in intact CSH12 cells; assay type: cell-based
[7] = molecular target: T1, Epidermal growth factor receptor; conditions: a-431
Description: Inhibition of EGF Receptor autophosphorylation in A431 cell lysate; Range = 10000-50000 nM

T1 sequence (P00533 whole entry): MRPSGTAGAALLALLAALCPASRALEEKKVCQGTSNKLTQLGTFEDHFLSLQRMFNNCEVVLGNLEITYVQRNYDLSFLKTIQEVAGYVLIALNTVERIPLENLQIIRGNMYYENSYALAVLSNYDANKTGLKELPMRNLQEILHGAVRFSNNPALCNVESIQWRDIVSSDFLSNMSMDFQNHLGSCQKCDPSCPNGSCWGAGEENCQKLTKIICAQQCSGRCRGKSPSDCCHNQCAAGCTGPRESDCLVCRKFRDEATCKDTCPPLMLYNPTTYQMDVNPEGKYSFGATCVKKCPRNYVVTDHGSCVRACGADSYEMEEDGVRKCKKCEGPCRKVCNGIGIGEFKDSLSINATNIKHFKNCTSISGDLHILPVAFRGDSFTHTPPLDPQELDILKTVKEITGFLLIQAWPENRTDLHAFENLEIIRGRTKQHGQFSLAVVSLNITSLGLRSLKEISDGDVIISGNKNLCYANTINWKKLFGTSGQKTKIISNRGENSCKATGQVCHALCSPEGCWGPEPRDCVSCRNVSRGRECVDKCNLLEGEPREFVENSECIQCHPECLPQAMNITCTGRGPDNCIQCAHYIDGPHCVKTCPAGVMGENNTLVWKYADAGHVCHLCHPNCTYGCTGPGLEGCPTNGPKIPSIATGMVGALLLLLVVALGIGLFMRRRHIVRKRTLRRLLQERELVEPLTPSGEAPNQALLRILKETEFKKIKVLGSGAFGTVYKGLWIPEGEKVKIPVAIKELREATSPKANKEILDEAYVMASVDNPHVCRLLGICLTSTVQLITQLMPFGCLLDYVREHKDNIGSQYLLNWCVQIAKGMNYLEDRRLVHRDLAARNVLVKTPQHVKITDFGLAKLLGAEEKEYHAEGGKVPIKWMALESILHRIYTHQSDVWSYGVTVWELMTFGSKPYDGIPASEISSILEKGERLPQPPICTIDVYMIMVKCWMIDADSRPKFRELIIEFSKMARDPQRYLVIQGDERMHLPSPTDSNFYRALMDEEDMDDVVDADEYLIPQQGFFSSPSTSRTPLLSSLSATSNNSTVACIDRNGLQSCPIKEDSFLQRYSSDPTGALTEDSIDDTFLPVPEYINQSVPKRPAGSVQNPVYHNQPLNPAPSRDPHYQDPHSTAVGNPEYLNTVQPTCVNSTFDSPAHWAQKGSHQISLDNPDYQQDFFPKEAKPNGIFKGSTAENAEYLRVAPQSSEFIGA

Row | Structure (SMILES) | IC50 [1] | IC50 [2] | IC50 [3] | also measured
1 | C=CC(=O)Nc1cc2c(Nc3cccc(Br)c3)ncnc2cc1N1CCN(C)CC1 | > 500 nM | – | – | –
2 | COc1cc2ncnc(Nc3cc(Cl)c(Cl)cc3F)c2cc1OC | – | 0.208 nM | – | –
3 | C=CC(=O)Nc1cc2c(Nc3cc(Cl)c(Cl)cc3F)ncnc2cc1N1CCN(C)CC1 | > 500 nM | 6000 nM | – | IC50 [4]: 250 nM

The next lines start with results.

Row | IC50 [1] | IC50 [2] | IC50 [3] | Structure (SMILES) | also measured
4 | – | – | > 1000 nM | CN(C)C/C=C/C(=O)Nc1ccc2ncnc(Nc3cc(Cl)c(Cl)cc3F)c2c1 | –
5 | < 5 nM | 0.94 nM | – | CN(C)C/C=C/C(=O)Nc1ccc2ncnc(Nc3cccc(I)c3)c2c1 | IC50 [4]: < 5 nM
6 | 50000 nM | 150 nM | – | COCC(=O)Nc1ccc2ncnc(Nc3cccc(I)c3)c2c1 | –
7 | – | 0.07 nM | > 1000 nM | O=C(CCl)Nc1ccc2ncnc(Nc3cc(Cl)c(Cl)cc3F)c2c1 | IC50 [5]: 50 nM
8 | – | 252 nM | > 1000 nM | COCC(=O)Nc1ccc2ncnc(Nc3cc(Cl)c(Cl)cc3F)c2c1 | IC50 [6]: > 500 nM; IC50 [7]: 50000 nM
